According to US20120294837A1, “METHODS OF ISOLATING AND CULTURING MESENCHYMAL STEM CELLS” (UNIVERSITY OF ROCHESTER, priority 2010, published 2012):

What was measured:
cleaved Notch2 (NICD2) = test: Western blot for cleaved, active Notch2 (NICD2) in cultured limb-bud derived MSCs; type: cell-based, mouse; conditions: DAPT 1 um, cultured overnight, vs absence of DAPT
Method: Total protein was isolated from either whole mouse limb-bud tissue or cultured limb-bud derived MSCs using Golden lysis buffer. The cultured limb-bud derived MSCs were plated at the density of 6×10^6 cells in 10 cm dishes and cultured overnight in 10% FBS DMEM media both in the presence and absence of DAPT (1 um). Protein samples (˜100 μg) from each isolation were subsequently separated on 10% SDS-polyacrylamide and transferred to a PVDF membrane. NICD1 and NICD2 cleaved proteins were detected using the bTAN 20 (Notch1) and C651.6DdHN (Notch2) primary antibodies (0.4 ug/ml) and then further probed with appropriate secondary antibody (1:3000). Anti-β-actin antibody (Sigma; St. Louis, Mo.) was used as a control for equal protein loading. Immunoblots were detected using Supersignal west femto maximum sensitivity substrate (Pierce; Rockford, Ill.).
To determine which Notch receptor is active in the limb-bud mesenchyme, total protein was isolated from cultured MSCs in the presence and absence of the Notch inhibitor, N-(3,5-difluorophenylacetyl-L-alanyl)]-S-phenylglycine t-ButylEster (DAPT, Calbiochem; San Diego, Calif.), or directly from wild-type E11.5 whole limb-bud tissue, and performed western blot analyses using Notch1 and Notch2 antibodies that can detect the cleaved or active (NICD) form of the receptor. […]

limb-bud derived MSCs [1] = test: Limb-bud MSC micromass chondrogenic differentiation (Alcian blue staining, real-time RT-PCR); type: cell-based, mouse
Method: (§1) Limb-bud derived MSCs were isolated from E11.5 CD1 mouse embryos as previously described (Zhang et al., Bone 34:809-17 (2004)). For chondrogenic differentiation, MSCs were seeded in micromass (1×10^5 cells in […]) in 12-well plates for 1.5 hours before adding standard media, media containing DAPT (1 μM), or media containing Hes1 shRNA lentivirus. Cells were cultured for a time-course of 6 hours, 3, 5, and 7 days prior to harvest for cartilage staining (1% Alcian blue/3% glacial acetic acid) or total RNA isolations. Limb-bud derived MSCs were also cultured in monolayer for 21 days and treated with either osteogenic (10 nM dexamethasone; 50 μM ascorbic acid; 10 mM β-glycerolphosphate) or adipogenic medium (Millipore; Billerica, Mass.) in the presence and absence of DAPT. Fixed MSCs were stained for osteoblastic differentiation using an alkaline phosphatase stain (nitro blue tetrazolium chloride/5-bromo-4-chloro-3-indolyhosphate P-toluidine salt) or adipogenic differentiation using an Oil Red-O staining solution (0.36%). Total RNA was isolated from monolayer cultures at day 21 for use in real-time RT-PCR analyses.
(§2) Embryonic limb-bud tissues or micromass cultures were frozen in liquid nitrogen and then homogenized in Trizol Reagent (Invitrogen; Carlsbad, Calif.) via rendering through a 25-gauge needle and syringe. Total cellular RNA was extracted following the manufacture's protocol. RNA was quantified using a NanoDrop spectrophotometer (NanoDrop; Wilmington, Del.) and equal concentrations of total RNA were pooled for synthesis of cDNA. Total RNA (1 μg) was reverse transcribed using the iScript™ cDNA synthesis kit (Bio-Rad; Hercules, Calif.) according to the manufacture's instructions. Reverse transcribed cDNA was analyzed by real-time RT-PCR with mouse-specific primers for: Sox9, Runx2, Col2a1, Agc1, Col1a1, Ap, Oc, Pparγ, Jagged1, Jagged2, Delta-like1, Delta-like3, Delta-like4, Notch1, Notch2, Notch3, Notch4, Hes1, Hes3, Hes5, Hes7, Hey1, Hey2, HeyL, and CyclinD1. Primers were designed using Applied Biosystems software (Applied Biosystems; Foster City, Calif.). Sequences are available upon request. DNA amplification was achieved using the SYBR® Green PCR Master Mix (Applied Biosystems; Foster City, Calif.) and the RotorGene real-time DNA amplification system (Corbett Research; Sydney, Australia). Gene expression was normalized to β-actin expression levels and then normalized to control samples.
To determine the role of Notch signaling in MSCs, Notch loss-of-function assays were performed on E11.5 limb-bud derived MSC cultures using the Notch inhibitor, DAPT. […] The effect of DAPT was also assessed on the expression of the chondrogenic markers Sox9, Col2a1, and Agc1 via real-time RT-PCR.

limb-bud derived MSCs [2] = test: Limb-bud MSC osteogenic monolayer differentiation (alkaline phosphatase staining, real-time RT-PCR); type: cell-based, mouse; conditions: DAPT 1 μM, 21 days
Method: as §1
as §2, with “Sequences are available upon request. DNA amplification was achieved using the SYBR® Green PCR Master Mix (Applied Biosystems; Foster City, Calif.) and the RotorGene real-time DNA amplification system (Corbett Research; Sydney, Australia). Gene expression was normalized to β-actin expression levels and then normalized to control samples.” left out

limb-bud derived MSCs [3] = test: Limb-bud MSC adipogenic monolayer differentiation (Oil Red-O staining, real-time RT-PCR); type: cell-based, mouse; conditions: DAPT 1 μM, 21 days
Method: as §1
as §2, with “Sequences are available upon request. DNA amplification was achieved using the SYBR® Green PCR Master Mix (Applied Biosystems; Foster City, Calif.) and the RotorGene real-time DNA amplification system (Corbett Research; Sydney, Australia). Gene expression was normalized to β-actin expression levels and then normalized to control samples.” left out

hMSCs [4] = test: BrdU ELISA proliferation assay of hMSCs on Jag1 coated plates; type: cell-based, human; conditions: passage 3 hMSCs, 24 hours, vs IgG
Method: (§3) To determine if Notch signaling can induce important regulators of stem cell maintenance, passage 3 hMSCs were cultured on Jag1 and IgG coated plates for 24 hours and isolated RNA for real-time RT-PCR analyses (FIG. 11B). […] Therefore, Jag1/Notch signaling regulated hMSC maintenance and expansion via this network of stem cell factors. Finally, the same culture system and passage 3 hMSCs were used to determine if Jag1 regulated the proliferation of hMSCs over a relatively short time interval. BrdU ELISA assays were performed for hMSCs cultured on Jag1 and IgG coated plates for 24 hours.

Notch signaling in hMSCs = test: RBPjP-dependent Notch luciferase reporter in hMSCs cultured on Jag1 coated plates; type: cell-based, human
Method: This lentivirus expresses GFP allowing determination of infection efficiency after 24 hours and during multiple passages of the cells. […] A protocol for coating culture dishes with the recombinant Jag1 protein using 5 μg/ml, 10 μg/ml, and 15 μg/ml concentrations of Jag1 and 10 μg/ml concentration of IgG as controls was established. […] Next, to confirm that this Jag1 coating technology induced Notch signaling in hMSCs, hMSCs transfected with the RBPjP-dependent Notch luciferase reporter were cultured on 5 μg/ml, 10 μg/ml, and 15 μg/ml Jag1 and IgG coated plates.

hMSCs [5] = test: Real-time RT-PCR of Notch target and stem cell regulator genes in hMSCs on Jag1 coated plates; type: cell-based, human; conditions: Jag1 coated plates 10 μg/ml, passage 3 hMSCs, 24 hours
Method: as §3

Compound | abundance of the cleaved Notch2 (NICD2) (cleaved Notch2 (NICD2)) | cartilage nodule formation (limb-bud derived MSCs [1]; 1 μM DAPT, micromass culture, Alcian blue) | Agc1 expression (limb-bud derived MSCs [1]; DAPT 1 μM, day 7, real-time RT-PCR) | Sox9, Col2a1, and Agc1 expression (limb-bud derived MSCs [1]; DAPT 1 μM, first 3-5 days of culture, vs untreated cultures, real-time RT-PCR) | limb-bud MSC differentiation (limb-bud derived MSCs [1]; continuous DAPT 1 μM vs vehicle, chondrogenic, osteogenic and adipogenic cultures (FIG. 2A-2C)) | alkaline phosphatase staining (limb-bud derived MSCs [2]; osteogenic media) | osteoblastic differentiation of MSCs (limb-bud derived MSCs [2]; osteogenic media) | expression of osteoblast marker genes Col1a1, AP, and Oc (limb-bud derived MSCs [2]; real-time RT-PCR) | Oil Red-0 staining (limb-bud derived MSCs [3]; adipogenic media) | adipogenic differentiation of MSCs (limb-bud derived MSCs [3]; adipogenic media) | expression of the adipocyte marker gene Pparγ (limb-bud derived MSCs [3]; real-time RT-PCR) | increase of BrdU incorporation as compared to controls (hMSCs [4]) | hMSC growth, cell size, shape, cell survival on coated plates (Notch signaling in hMSCs; Jag1 coated plates) | luciferase activity of Notch reporter (Notch signaling in hMSCs; plates coated with 10 μg/ml Jag1, 5, 10 and 15 μg/ml compared, IgG control) | Oct4 expression compared to Sox2 and Nanog (hMSCs [5]) | Hes1 expression over controls (hMSCs [5]; vs IgG) | expression of Oct4, Sox2, and Nanog (hMSCs [5]; vs IgG)
C[C@H](NC(=O)Cc1cc(F)cc(F)c1)C(=O)N[C@H](C(=O)OC(C)(C)C)c1ccccc1 [DAPT] | reduce the abundance of the cleaved Notch2 (NICD2) | significantly enhanced cartilage nodule formation | significantly reduced | enhanced | enhances limb-bud MSC differentiation without biasing lineage determination | elevated alkaline phosphatase staining | enhanced normal osteoblastic differentiation | significant increase | elevated Oil Red-0 staining | enhanced normal adipogenic differentiation | increase |  |  |  |  |  | 
Jag1: recombinant Jag1 protein, Notch ligand, coated on culture dishes to activate Notch signaling |  |  |  |  |  |  |  |  |  |  |  | more than 50% | no obvious changes in cell size, shape, or cell survival | maximal luciferase activity | only mildly enhanced | approximately 7 fold | induced the expression
